According to patent US12098176B2, “Keratin BD-4, preparation method, and pharmaceutical composition and use thereof” (Institute of Materia Medica, Chinese Academy of Medical …, priority 2019, dated 2024):
Structures can show the parent of a compound that is named as a salt. Marks after values point to notes of the source that are not given here.

Experiments:
[1] = test system: mice cough induced by ammonia water; assay: Antitussive test, cough induced by ammonia water in mice; assay type: in vivo, mouse
Method: Experimental example 6 The effect of protein BD-4 (Example 4 protein) on the antitussive effect of the cough induced by ammonia water in mice. Animals: male ICR mice; Drugs and reagents: dextromethorphan hydrobromide, ammonia, 0.2% CMC-Na, protein BD-4; Apparatus: Compressed nebulizer (403T type), balance (XS105DU type). Experiment Grouping: • Solvent control group; • Dextromethorphan 15 mg/kg group; • Protein BD-4, 20 mg/kg group, 50 mg/kg group. Method: Model Preparation and Administration:
Dextromethorphan and different doses of protein BD-4 (administration volume 10 ml/kg) were given orally in groups, and the solvent control group was given the same volume of distilled water. One hour later, it was put into a sealed box and atomized 10% ammonia water for 10 seconds, and then observed and recorded the incubation period of cough in mice and the number of coughs in 2 minutes.
Record the time point of oral administration, the time point of atomization experiment, the incubation period of mice cough and the number of coughs within 2 minutes, respectively. The incubation period of cough refers to the number of seconds from the start of the atomization of ammonia to the occurrence of cough. The performance of coughing in mice is based on contraction of their abdominal muscles (breast contraction) and opening their mouths at the same time. Calculate the mean and standard error of each group of data, use TTEST to compare the model group with other groups, and P<0.05 is considered as a significant difference.

[2] = test system: PLO-induced epilepsy in mice; assay: Pilocarpine (PLO) induced convulsive epilepsy in mice; assay type: in vivo, mouse; conditions: Diazepam 2 mg/kg
Method: Experimental example 3 The pharmacodynamic test of protein BD-4 (Example 4 protein) on convulsive epilepsy in mice caused by the convulsion agent Pilocarpine (PLO)
Model group: • Diazepam (Diazepam) 2 mg/kg group; • Protein BD-4, 50 mg/kg group, 200 mg/kg group. Method: Model Preparation and Administration:
The drug was administered once in the afternoon the day before modeling, PLO-225 mg/kg (modeling agent) was injected intraperitoneally 1 hour after the test drug was given to the stomach on the day of modeling. And positive drug can be administered once 20 minutes before modeling. Observe for 30 minutes after PLO injection.
Observation indicators: 1) Seizure situation: the time of seizures from grade II to grade IV; 2) the time to death.
Attack level: Refer to Racine grading standard: Level 0: No response; Grade I: manifested as twitching of facial muscles or the corners of the mouth; Level II: can nod; Level III: Twitching of one limb; Grade IV: rigidity or body twitching; Grade V: generalized epilepsy (generalized tonic seizures).
Count the number of grade IV seizures and deaths in each group of mice in the experiment; Level II, III and IV incubation period. […] Chi-square test was used for statistics of the number of cases. The mean value and standard error of the incubation period were calculated, and TTEST was used to compare the model group with other groups. P<0.05 was considered as a significant difference.

[3] = test system: PTZ-induced epilepsy in mice; assay: Pentylenetetrazole (PTZ) induced epilepsy in mice; assay type: in vivo, mouse; conditions: Retigabine 60 mg/kg
Method: Experiment Grouping: • Model group; • Retigabine 60 mg/kg group; • Protein BD-4, 50 mg/kg group, 200 mg/kg group; Method: Model Preparation and Administration:
Administer once in the afternoon the day before modeling, On the day of modeling, intraperitoneal injection of PTZ-65 mg/kg (modeling agent) 1 hour after gavage of the test drug, the positive drug can be administered once half an hour before modeling. Continue to observe for 15 minutes after injection of PTZ.
Observation index: 1) Seizure condition: Onset time of grade III to grade VI; 2) Death situation
Onset level: Refer to Racine grading standard: Level 0: No response; Grade I: manifested as twitching of facial muscles or the corners of the mouth; Level II: Can nod; Grade III: twitching of one limb; Grade IV: Rigidity or body twitching; Grade V: Generalized epilepsy (Generalized tonic seizures).
Count the number of seizures and deaths in each group of mice in the experiment; Level III and IV incubation period. The incubation period of mice that have not attacked to grade IV is recorded as the maximum of 900 seconds. Chi-square test was used for statistics of the number of cases. Calculate the mean and standard error of the incubation period. Use TTEST to compare the model group with other groups, and P<0.05 is considered as a significant difference.

[4] = test system: lipopolysaccharide (LPS) induced fever in rats; assay: Lipopolysaccharide (LPS) induced fever in SD rats; assay type: in vivo, rat
Method: Experimental example 2 The pharmacodynamic test of protein BD-4 (Example 4 protein) on lipopolysaccharide (LPS) induced fever in SD rats.
Experiment Grouping: • Model group: lipopolysaccharide fever model; • Positive control group: Aspirin 300 mg/kg group, • Protein BD-4, 10 mg/kg group, 50 mg/kg group. Method: the method of intraperitoneal injection of Lipopolysaccharide to create fever model in rats.
(§1) Preparation of experimental animals: After the experimental animals adapt to the experimental environment (temperature 22° C.±2° C., relative humidity 50%±2%) for 1 day. Pre-adaptation to measure rectal temperature at 8:00 and 15:00, Rats were fasted and water was taken freely 12 h before experiment. before the experiment, let the animal to empty its feces before measuring the rectal temperature. Apply petroleum jelly to the electronic thermometer probe before each temperature measurement. Insert the rat rectum 2 cm (can be marked at 2 cm to ensure that the depth of each insertion is consistent), and record the body temperature after the reading is stable.
Intraperitoneal injection of lipopolysaccharide to replicate rat fever model: The body temperature of the rats was measured before modeling. Qualified rats with a body temperature of 36.2-37.3° C. were selected and randomly divided into groups with 8 rats in each group. After oral administration of aspirin and different doses of protein BD-4, lipopolysaccharide (20 μg/kg, 2 ml/kg) was injected intraperitoneally immediately, and the normal control group was injected intraperitoneally with an equal volume of normal saline. the rats' body temperature was monitored after 2 hours for a total of 8 hours.
(§2) According to the body temperature measured at each time point on the day of the experiment, calculate the mean, standard deviation and standard error of the body temperature of each group of rats. The data of each group was compared with TTEST, and P<0.05 was considered as a significant difference.

[5] = test system: yeast-induced fever model in rats; assay: Yeast-induced fever model in SD rats; assay type: in vivo, rat
Method: Experimental example 1 The pharmacodynamic test of protein BD-4 (the protein in Example 4) on the fever model of SD rats induced by yeast
• Normal control group; • Model group: yeast fever model; • Positive control group: Aspirin 300 mg/kg group; • Protein BD-4, 10 mg/kg group, 50 mg/kg group. Method:
as §1, with “experiment.” for “experiment. before the experiment,”
Subcutaneous injection of dry yeast to replicate rat fever model: The body temperature of the rats was measured before modeling. Qualified rats with a body temperature of 36.2-37.3° C. were selected and randomly divided into groups with 8 rats in each group. After oral administration of aspirin and different doses of protein BD-4, 20% yeast suspension (10 ml/kg) was injected subcutaneously immediately, and the normal control group was injected intraperitoneally with an equal volume of normal saline. the rats' body temperature was monitored after 2 hours for a total of 8 hours.
as §2

[6] = test system: acetic acid writhing of ICR mice; assay: Acetic acid writhing test in ICR mice; assay type: in vivo, mouse
Method: Experimental example 7 The pharmacodynamic test of protein BD-4 (Example 4 protein) on acetic acid writhing in ICR mice. Animals: male ICR mice; Drugs and reagents: aspirin, physiological saline, glacial acetic acid, protein BD-4. Experiment Grouping:
One day after the experimental animals adapt to the environment, Aspirin 300 mg/kg, protein BD-4 50 mg/kg, 200 mg/kg were given orally one hour in advance, and the administration volume was 10 ml/kg; Then, 0.6% acetic acid solution was injected into the abdominal cavity, and the latency period (seconds) and frequency of writhing in the animal was observed within 15 minutes.
Calculate the mean and standard error of the data in each group. Compared with the model group by TTEST, P<0.05 was considered as statistically different.
0.6% acetic acid solution was injected into the abdominal cavity of mice, which caused deep and large area and long-term painful stimulation, causing the mice to writhe (the abdomen was contracted into an “S” shape, the trunk and hind legs were stretched, the buttocks were raised and the hips Row). The incubation time and the number of times the mice began to writhe were used as the pain response index to determine whether the test sample had analgesic effect. […] Compared with the model group, P<0.05, which is statistically significant.

[7] = dextromethorphan 15 mg/kg, P<0.05
[8] = aspirin 300 mg/kg oral, 0.6% acetic acid i.p., within 15 minutes

COc1ccc2c(c1)[C@]13CCCC[C@@H]1[C@H](C2)N(C)CC3 [Dextromethorphan, dextromethorphan hydrobromide, reference compound]
Incubation period ([1]; Dextromethorphan 15 mg/kg oral, cough latency, X ± SEM): 39.2 ± 2.8 s
Number of coughs ([1]; Dextromethorphan 15 mg/kg oral, within 2 minutes, X ± SEM): 40.2 ± 3.5
Cough incubation period vs solvent control group [1, 7]: significant improvement
Number of coughs vs solvent control group [1, 7]: significant improvement

CN1C(=O)CN=C(c2ccccc2)c2cc(Cl)ccc21 [Diazepam, reference compound]
Grade IV seizure rate ([2]; 10 mice, PLO 225 mg/kg i.p.): 0**
mortality rate ([2]; 10 mice, PLO 225 mg/kg i.p.): 0
Level II onset incubation period ([2]; mean ± SEM): 118 ± 9 s
Level III onset incubation period ([2]; mean ± SEM): 172 ± 13 s
Level IV onset incubation period ([2]; mean ± SEM, no grade IV attack recorded as 1800 s): 1800 ± 0 s
Number of deaths ([2]; of 10 mice, PLO 225 mg/kg i.p.): 0
Number of Grade IV cases ([2]; of 10 mice, PLO 225 mg/kg i.p., 30 min observation): 0**

CCOC(=O)Nc1ccc(NCc2ccc(F)cc2)cc1N [Retigabine, reference compound]
Grade IV seizure rate ([3]; 10 mice, PTZ 65 mg/kg i.p.): 10%**
mortality rate ([3]; 10 mice, PTZ 65 mg/kg i.p.): 0
Level III onset latency ([3]; mean ± SEM): 106 ± 12 s
Grade IV onset latency ([3]; mean ± SEM, no grade IV attack recorded as 900 s): 819 ± 81 s
Number of deaths ([3]; of 10 mice, PTZ 65 mg/kg i.p.): 0
Number of Grade IV cases ([3]; of 10 mice, PTZ 65 mg/kg i.p., 15 min observation): 1**

CC(=O)Oc1ccccc1C(=O)O [aspirin, reference compound]
Body temperature 2 hours after modeling ([4]; aspirin 300 mg/kg oral, 2 h after LPS 20 μg/kg i.p.): 36.9 ± 0.2 °C
Body temperature 4 hours after modeling ([4]; aspirin 300 mg/kg oral, 4 h after LPS 20 μg/kg i.p.): 37.0 ± 0.1 °C
Body temperature 6 hours after modeling ([4]; aspirin 300 mg/kg oral, 6 h after LPS 20 μg/kg i.p.): 36.9 ± 0.1 °C
Body temperature 8 hours after modeling ([4]; aspirin 300 mg/kg oral, 8 h after LPS 20 μg/kg i.p.): 36.9 ± 0.1 °C
Effect on increase in body temperature of model rats ([4]; aspirin 300 mg/kg, 2, 4, 6 and 8 hours after modeling, vs model group P<0.05): effectively inhibit the increase in body temperature
Body temperature 2 hours after modeling ([5]; aspirin 300 mg/kg oral, 2 h after 20% yeast s.c.): 36.5 ± 0.1 °C
Body temperature 4 hours after modeling ([5]; aspirin 300 mg/kg oral, 4 h after 20% yeast s.c.): 36.9 ± 0.1 °C
Body temperature 6 hours after modeling ([5]; aspirin 300 mg/kg oral, 6 h after 20% yeast s.c.): 37.0 ± 0.1 °C
Body temperature 8 hours after modeling ([5]; aspirin 300 mg/kg oral, 8 h after 20% yeast s.c.): 37.2 ± 0.1 °C
Effect on increase in body temperature of model rats ([5]; aspirin 300 mg/kg, 4, 6 and 8 hours after modeling, vs model group P<0.05): effectively inhibit the increase in body temperature
Frequency of writhing vs model group ([6]; Aspirin 300 mg/kg, P<0.05): reduce the frequency of writhing
Incubation period of writhing vs model group ([6]; Aspirin 300 mg/kg, P<0.05): significantly delay the incubation period of writhing
Number of twists [6, 8]: 16.7 ± 2.6 times
Writhing latency [6, 8]: 301.0 ± 30.4 s
